System: U-87 MG GBM cells
Assay: U-87 MG proliferation assay (cell count, Trypan Blue)
Type: cell-based
Conditions: Homo sapiens, 48 h incubation, read-out: IC50 cell viability U-87 MG
Protocol: The methodology for the evaluation of the growth of human MCF-7 breast carcinoma cells was previously described, except that cells were grown for 96 h for IC50 determinations.[66] U-87 MG and OVCAR-3 proliferation assays were performed plating 10^4 cells/cm^2 in a Multiwell 24. The day after, cells were treated with compound 15, and DMSO was used as a control. Cells were counted 48 h later with a Bürker counting chamber, after dilution in TrypanBlue (#T6146 Sigma-Aldrich).
All experiments were performed multiple times to reach statistical significance, as specified in the figure legends. Statistical analysis was performed using GraphPad Prism version 7.0 for Mac. IC50 values were calculated by using a nonlinear regression formula, using the percentage of cells number and the logarithmic value of drug concentrations. Data were analyzed with analysis of variance (one-way ANOVA test). Data with *p < 0.05 were considered statistically significant.

COc1cc(C(=O)c2cn(-c3ncccn3)cc2-c2ccco2)cc(OC)c1OC [Compound 15, (4-(Furan-2-yl)-1-(pyrimidyl-2-yl)-1H-pyrrol-3-yl)(3,4,5-trimethoxyphenyl)methanone]
IC50: 10.1 nM
